Values belong to the compound of their own block, whether it stands above or below them.
Legend:
mu opiate receptor (MOR) = test: MOR agonist activity using [35S]GTPγS binding assay in striatal membranes; type: biochemical; details: for % DAMGO (0.1 μM) / % DAMGO (1 μM): relative to DAMGO; for % DAMGO + BFNA: 1 μM compound + β-FNA, relative to DAMGO + BFNA
Method: To assess the mu opiate receptor (MOR) agonist activity of positive compounds from the FLNA screening, compounds were tested in a [^35S]GTPγS binding assay using striatal membranes. […] This assay measures a functional consequence of receptor occupancy at one of the earliest receptor-mediated events. The assay permits traditional pharmacological parameters of potency, efficacy and antagonist affinity, with the advantage that agonist measures are not subjected to amplification or other modulation that may occur when analyzing parameters further downstream of the receptor.
Thus, striatal tissue was homogenized in 10 volumes of ice cold 25 mM HEPES buffer, pH 7.4, which contained 1 mM EGTA, 100 mM sucrose, 50 μg/ml leupeptin, 0.04 mM PMSF, 2 μg/ml soybean trypsin inhibitor and 0.2% 2-mercaptoethanol. The homogenates were centrifuged at 800×g for 5 minutes and the supernatants were centrifuged at 49,000×g for 20 minutes. The resulting pellets were suspended in 10 volume of reaction buffer, which contained 25 mM HEPES, pH 7.5, 100 mM NaCl, 50 μg/ml leupeptin, 2 μg/ml soybean trypsin inhibitor, 0.04 mM PMSF and 0.02% […].
The resultant striatal membrane preparation (200 μg) was admixed and maintained (incubated) at 30° C. for 5 minutes in reaction buffer as above that additionally contained 1 mM MgCl2 and 0.5 nM [^35S]GTPγS (0.1 μCi/assay, PerkinElmer Life and Analytical Sciences) in a total volume of 250 μl and continued for 5 minutes in the absence or presence of 0.1-10 μM of an assayed compound of interest. The reaction was terminated by dilution with 750 μl of ice-cold reaction buffer that contained 20 mM MgCl2 and 1 mM EGTA and immediate centrifugation at 16,000×g for 5 minutes.
The resulting pellet was solubilized by sonicating for 10 seconds in 0.5 ml of immunoprecipitation buffer containing 0.5% digitonin, 0.2% sodium cholate and 0.5% NP-40. Normal rabbit serum (1 μl) was added to 1 ml of lysate and incubated at 25° C. for 30 minutes. Nonspecific immune complexes were removed by incubation with 25 μl of protein A/G-conjugated agarose beads at 25° C. for 30 minutes followed by centrifugation at 5,000×g at 4° C. for 5 minutes. The supernatant was divided and separately incubated at 25° C. for 30 minutes with antibodies raised against Gαo proteins (1:1,000 dilutions).
The immunocomplexes so formed were collected by incubation at 25° C. for 30 minutes with 40 μl of agarose-conjugated protein A/G beads and centrifugation at 5,000×g at 4° C. for 5 minutes. The pellet was washed and suspended in buffer containing 50 mM Tris-HCl, pH 8.0, and 1% NP-40. The radioactivity in the suspension was determined by liquid scintillation spectrometry.

[1] = molecular target: FLNA pentapeptide of SEQ ID NO: 1 (Bn-VAKGL) (Homo sapiens, UniProt P21333); test: FITC-NLX-based FLNA screening assay (inhibition of FITC-naloxone binding to Bn-VAKGL on streptavidin plates); details: 10 nM FITC-NLX, read-out: Percent Binding Inhibition; for inhibition at 0.01 µM: FLNA-binding compound 0.01 μM; for inhibition at 0.1 µM: FLNA-binding compound 0.1 μM; for inhibition at 1 µM: FLNA-binding compound 1 μM
[2] = Series C-2, 0.1 μM compound, [35S]GTPγS binding to Gαo, striatal membranes
[3] = Series C-2, 1 μM compound + 1 μM β-FNA
[4] = Series C-2, 1 μM compound, [35S]GTPγS binding to Gαo, striatal membranes
[5] = Series C-1, 0.1 μM compound, [35S]GTPγS binding to Gαo, striatal membranes
[6] = Series C-1, 1 μM compound + 1 μM β-FNA
[7] = Series C-1, 1 μM compound, [35S]GTPγS binding to Gαo, striatal membranes

Structure (SMILES): COc1ccc(S(=O)(=O)N2CCC3(NCCO3)C3CCCCC32)cc1 (stereo not drawn) [Compound C0144M-2]
% DAMGO (0.1 μM) (mu opiate receptor (MOR); Series C-2, 0.1 μM compound): 108.3% | MOR agonist activity, percent [35S]GTPγS binding at the stated compound concentration (mu opiate receptor (MOR); [2]): 186.3% | MOR agonist activity, percent [35S]GTPγS binding at the stated compound concentration (mu opiate receptor (MOR); [3]): 125.9% | % DAMGO + BFNA (mu opiate receptor (MOR); Series C-2): 137.9% | % DAMGO (1 μM) (mu opiate receptor (MOR); Series C-2, 1 μM compound): 90.8% | MOR agonist activity, percent [35S]GTPγS binding at the stated compound concentration (mu opiate receptor (MOR); [4]): 295.9%

Structure (SMILES): O=C1CN(Cc2ccccc2)C2(CCN(C3CCCCC3)CC2)N1 [C0137M(P7)]
% DAMGO (0.1 μM) (mu opiate receptor (MOR); Series C-2, 0.1 μM compound): 95.6% | MOR agonist activity, percent [35S]GTPγS binding at the stated compound concentration (mu opiate receptor (MOR); [2]): 180.8% | MOR agonist activity, percent [35S]GTPγS binding at the stated compound concentration (mu opiate receptor (MOR); [3]): 55.8% | % DAMGO + BFNA (mu opiate receptor (MOR); Series C-2): 115.1% | % DAMGO (1 μM) (mu opiate receptor (MOR); Series C-2, 1 μM compound): 78.1% | MOR agonist activity, percent [35S]GTPγS binding at the stated compound concentration (mu opiate receptor (MOR); [4]): 193.8%

inhibition at 0.01 µM [1]: 29.6% | inhibition at 0.1 µM [1]: 38.3% | inhibition at 1 µM [1]: 44.8%
Structure (SMILES): NS(=O)(=O)c1ccc(S(=O)(=O)N2CCC3(CC2)NCCO3)cc1 [Compound C0034-3]

Structure (SMILES): CC(=O)c1ccc(S(=O)(=O)N2CCC3(CC2)NCC(=O)N3Cc2ccccc2)cc1 [Compound C0082M]
% DAMGO (0.1 μM) (mu opiate receptor (MOR); Series C-1, 0.1 μM compound): 113.7% | Concentration of FLNA-Binding Compound as Agonist 0.1 μM (mu opiate receptor (MOR); [5]): 228.1% | Concentration of FLNA-Binding Compound as Agonist 1 μM + BFNA (mu opiate receptor (MOR); [6]): 97.6% | % DAMGO + BFNA (mu opiate receptor (MOR); Series C-1): 181.1% | % DAMGO (1 μM) (mu opiate receptor (MOR); Series C-1, 1 μM compound): 107.8% | Concentration of FLNA-Binding Compound as Agonist 1 μM (mu opiate receptor (MOR); [7]): 338.4%

Structure (SMILES): O=C1CN(Cc2ccccc2)C2(CCN(S(=O)(=O)c3cc(Cl)cc(Cl)c3O)CC2)N1 [Compound C0138M]
% DAMGO (0.1 μM) (mu opiate receptor (MOR); Series C-1, 0.1 μM compound): 86.3% | Concentration of FLNA-Binding Compound as Agonist 0.1 μM (mu opiate receptor (MOR); [5]): 126.9% | Concentration of FLNA-Binding Compound as Agonist 1 μM + BFNA (mu opiate receptor (MOR); [6]): 51.5% | % DAMGO + BFNA (mu opiate receptor (MOR); Series C-1): 131.0% | % DAMGO (1 μM) (mu opiate receptor (MOR); Series C-1, 1 μM compound): 90.9% | Concentration of FLNA-Binding Compound as Agonist 1 μM (mu opiate receptor (MOR); [7]): 183.9%

Structure (SMILES): COc1ccc(CN2CCC3(CC2)OCCN3S(=O)(=O)c2ccc(OC)cc2)cc1 [Compound C0038]
inhibition at 0.01 µM [1]: 31.7% | inhibition at 0.1 µM [1]: 36% | inhibition at 1 µM [1]: 43.5%

Structure (SMILES): COc1ccc(S(=O)(=O)N2CCOC23CCCNC3)cc1 (stereo not drawn) [Compound C0145M-3]
% DAMGO (0.1 μM) (mu opiate receptor (MOR); Series C-2, 0.1 μM compound): 112.2% | MOR agonist activity, percent [35S]GTPγS binding at the stated compound concentration (mu opiate receptor (MOR); [2]): 193.0% | MOR agonist activity, percent [35S]GTPγS binding at the stated compound concentration (mu opiate receptor (MOR); [3]): 87.0% | % DAMGO + BFNA (mu opiate receptor (MOR); Series C-2): 95.3% | % DAMGO (1 μM) (mu opiate receptor (MOR); Series C-2, 1 μM compound): 88.7% | MOR agonist activity, percent [35S]GTPγS binding at the stated compound concentration (mu opiate receptor (MOR); [4]): 289.2%

Structure (SMILES): O=C(c1ccc([N+](=O)[O-])cc1)N1CCC2(CC1)OCCN2S(=O)(=O)c1ccc([N+](=O)[O-])cc1 [Compound C0033]
% DAMGO (0.1 μM) (mu opiate receptor (MOR); Series C-1, 0.1 μM compound): 85.9% | Concentration of FLNA-Binding Compound as Agonist 0.1 μM (mu opiate receptor (MOR); [5]): 134.5% | Concentration of FLNA-Binding Compound as Agonist 1 μM + BFNA (mu opiate receptor (MOR); [6]): 76.6% | % DAMGO + BFNA (mu opiate receptor (MOR); Series C-1): 235.0% | % DAMGO (1 μM) (mu opiate receptor (MOR); Series C-1, 1 μM compound): 80.6% | Concentration of FLNA-Binding Compound as Agonist 1 μM (mu opiate receptor (MOR); [7]): 186.4%

Structure (SMILES): O=S(=O)(c1ccccc1Oc1ccccc1)N1CCC2(CC1)NCCO2 [Compound C0149M-2]
% DAMGO (0.1 μM) (mu opiate receptor (MOR); Series C-2, 0.1 μM compound): 122.0% | MOR agonist activity, percent [35S]GTPγS binding at the stated compound concentration (mu opiate receptor (MOR); [2]): 209.8% | MOR agonist activity, percent [35S]GTPγS binding at the stated compound concentration (mu opiate receptor (MOR); [3]): 93.4% | % DAMGO + BFNA (mu opiate receptor (MOR); Series C-2): 102.3% | % DAMGO (1 μM) (mu opiate receptor (MOR); Series C-2, 1 μM compound): 124.8% | MOR agonist activity, percent [35S]GTPγS binding at the stated compound concentration (mu opiate receptor (MOR); [4]): 406.7%

Structure (SMILES): CC(=O)c1ccc(S(=O)(=O)N2CCC3(CC2)NC(=O)CN3Cc2ccccc2)cc1 [Compound C0085M]
% DAMGO (0.1 μM) (mu opiate receptor (MOR); Series C-1, 0.1 μM compound): 105.5% | % DAMGO + BFNA (mu opiate receptor (MOR); Series C-1): 112.6% | % DAMGO (1 μM) (mu opiate receptor (MOR); Series C-1, 1 μM compound): 78.4%

— US10363239B2, “Method for inhibiting growth of cancer cells” (Pain Therapeutics, Inc., priority 2013, dated 2019)
